Assay results taken from patent US8796330B2, “Inhibitors of histone deacetylase and prodrugs thereof” (Methylgene Inc., priority 2006, dated 2014).
pIC50: −log10 of the molar value. In brackets after ≈: the same amount, converted by molar mass. Where two headings read alike, the source gives them in different places.

Key:
[1] = system: histone deacetylase in nuclear extracts from H446 cells (pooled HDACs); assay: Inhibition of histone deacetylase in H446 nuclear extracts ([3H]-acetylated histone substrate); assay type: biochemical, human
[2] = molecular target: recombinant human HDAC-1 enzyme (rHDAC-1) (Homo sapiens (Human), UniProt Q13547); assay: Inhibition of recombinant human HDAC-1 ([3H]-acetylated histone substrate); assay type: biochemical
Solubility = assay type: physicochemical
rHDAC-1 = rHDAC-1 (Homo sapiens (Human), UniProt Q13547); assay: Fluorogenic Boc-Lys(Ac)-AMC deacetylase assay (Table 4a), rHDAC-1; assay type: biochemical; conditions: for pIC50: Boc-Lys(Ac)-AMC substrate, PI values = IC50 at maximum % inhibition reached; for rHDAC-1 partial inhibition (maximum % inhibition reached): PI = 100% inhibition not reached
Description: (§1) Alternatively (Table 4a), the following protocol is used to assay the compounds of the invention. In the assay, the buffer used is 25 mM HEPES, pH 8.0, 137 mM NaCl, 2.7 mM KCl, 1 mM MgCl2 and the substrate is Boc-Lys(Ac)-AMC in a 50 mM stock solution in DMSO. The enzyme stock solution is 4.08 μg/mL in buffer. The compounds are pre-incubated (2 μl in DMSO diluted to 13 μl in buffer for transfer to assay plate) with enzyme (20 μl of 4.08 μg/ml) for 10 minutes at room temperature (35 μl pre-incubation volume). The mixture is pre-incubated for 5 minutes at room temperature. The reaction is started by bringing the temperature to 37° C. and adding […] substrate. Total reaction volume is 50 μl. […] A plate is incubated in the dark for 10 minutes at room temperature before reading (λEx=360 nm, λEm=470 nm, Cutoff filter at 435 nm).

rHDAC-8 = rHDAC-8 (Homo sapiens (Human), UniProt Q9BY41); assay: Fluorogenic Boc-Lys(Ac)-AMC deacetylase assay (Table 4a), rHDAC-8; assay type: biochemical; conditions: for pIC50: Boc-Lys(Ac)-AMC substrate, PI values = IC50 at maximum % inhibition reached; for rHDAC-8 partial inhibition (maximum % inhibition reached): PI = 100% inhibition not reached
Description: as §1

[3] = Table 4, recombinant human HDAC-1
[4] = Milli-Q purified water, read-out: Solubility Water
[5] = pH 2, simulated gastric fluid, read-out: Solubility pH 2

Chain of rHDAC-1 (Q13547 whole entry): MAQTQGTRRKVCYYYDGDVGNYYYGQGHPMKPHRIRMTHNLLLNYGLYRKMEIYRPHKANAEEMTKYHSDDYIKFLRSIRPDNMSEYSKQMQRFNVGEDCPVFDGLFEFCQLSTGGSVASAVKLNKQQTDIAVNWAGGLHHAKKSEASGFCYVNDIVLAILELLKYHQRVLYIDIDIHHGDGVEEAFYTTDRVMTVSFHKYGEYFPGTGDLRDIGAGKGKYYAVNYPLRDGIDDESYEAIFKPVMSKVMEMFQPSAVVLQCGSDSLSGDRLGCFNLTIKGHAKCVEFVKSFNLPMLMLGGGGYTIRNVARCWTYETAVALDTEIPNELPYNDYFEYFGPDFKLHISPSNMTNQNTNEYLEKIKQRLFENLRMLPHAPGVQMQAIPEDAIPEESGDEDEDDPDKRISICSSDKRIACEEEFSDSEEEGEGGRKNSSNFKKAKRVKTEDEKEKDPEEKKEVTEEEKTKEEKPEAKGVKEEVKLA
Chain of recombinant human HDAC-1 enzyme (rHDAC-1) (Q13547 whole entry): as above
Chain of rHDAC-8 (Q9BY41 whole entry): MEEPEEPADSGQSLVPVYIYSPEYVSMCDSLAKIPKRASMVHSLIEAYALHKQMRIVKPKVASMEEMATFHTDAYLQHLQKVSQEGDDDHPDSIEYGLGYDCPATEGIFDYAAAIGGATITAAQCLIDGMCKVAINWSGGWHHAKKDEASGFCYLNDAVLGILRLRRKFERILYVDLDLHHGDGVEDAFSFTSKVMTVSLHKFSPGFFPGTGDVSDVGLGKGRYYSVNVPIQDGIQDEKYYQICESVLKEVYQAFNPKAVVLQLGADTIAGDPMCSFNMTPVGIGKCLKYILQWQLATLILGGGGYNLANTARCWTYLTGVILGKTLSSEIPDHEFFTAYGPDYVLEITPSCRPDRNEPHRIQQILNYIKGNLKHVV

| Structure (SMILES) | pIC50 ([1]; H446 nuclear extract) | pIC50 [2, 3] | further results |
| --- | --- | --- | --- |
| O=C(CCCCc1ccc(NS(=O)(=O)c2ccccc2)cc1)NO [Compound 34] | 5.70 | 6.52 | – |
| O=C(CCc1ccc(NS(=O)(=O)c2ccccc2)cc1)NO [Compound 38, N-Hydroxy-3-[4-(benzenesulfonylamino)-phenyl]-2-propanamide] | 6.12 | 7.00 | – |
| O=C(NO)c1ccc(CCSc2ccccc2)cc1 [Compound 70, N-Hydroxy-4-(2-thiophenyl)-ethyl benzamide] | – | – | pIC50 [1]: 5.26; pIC50 [2]: 6.05 |
| O=C(CCc1ccc(CCCc2ccccc2)cc1)NO [Compound 77, N-Hydroxy-3-[4-(3-phenylpropyl)-phenyl]-propanamide] | – | 6.19 | – |
| CC(C)C(Cc1ccc(NS(=O)(=O)c2ccccc2)cc1)C(=O)NO (centres unmarked) [Compound 81] | < 4.30 | < 4.60 | – |
| O=C(/C=C/c1ccc(NS(=O)(=O)c2cccs2)cc1)NO [Compound 87] | 5.52 | 6.22 | – |
| O=C(/C=C/c1ccc(NS(=O)(=O)c2cccc3ccccc23)cc1)NO [Compound 93] | 6.46 | – | – |
| O=C(/C=C/c1ccc(NS(=O)(=O)c2ccc3ccccc3c2)cc1)NO [Compound 94] | 6.40 | 7.52 | – |
| O=C(/C=C/c1ccc(NS(=O)(=O)c2cc3ccccc3s2)cc1)NO [Compound 95] | 6.10 | 6.70 | – |
| O=C(/C=C/c1ccc(NS(=O)(=O)c2ccccn2)cc1)NO [Compound 96] | – | – | pooled HDACs percent inhibition ([1]; H446 nuclear extract, @ 5 μM): 33% @ 5 μM |
| CN(C)c1cccc2c(S(=O)(=O)Nc3ccc(/C=C/C(=O)NO)cc3)cccc12 [Compound 97] | 6.10 | 6.55 | – |
| COc1ccc(NS(=O)(=O)c2ccc(/C=C/C(=O)NO)cc2)cc1OC [Compound 98] | – | 7.22 | – |
| O=C(/C=C/c1ccc(NS(=O)(=O)c2cccc3cccnc23)cc1)NO [Compound 99] | 6.05 | – | – |
| O=C(/C=C/c1ccc(NS(=O)(=O)Cc2ccccc2)cc1)NO [Compound 100] | 6.10 | 6.12 | – |
| O=C(/C=C/c1ccc(NS(=O)(=O)c2ccc3oc4ccccc4c3c2)cc1)NO [Compound 101] | 6.52 | 7.40 | – |
| O=C(/C=C/c1ccc(NS(=O)(=O)c2ccc(-c3cccs3)s2)cc1)NO [Compound 103] | 6.15 | 7.30 | – |
| O=C(/C=C/c1ccc(NS(=O)(=O)c2cccnc2)cc1)NO [Compound 104] | – | – | pooled HDACs percent inhibition ([1]; H446 nuclear extract, @ 5 μM): 21% @ 5 μM |
| O=C(/C=C/c1ccc(NS(=O)(=O)c2ccc(Cl)cc2Cl)cc1)NO [Compound 106] | 6.10 | 6.52 | – |
| Cc1ccc(S(=O)(=O)Nc2ccc(/C=C/C(=O)NO)cc2)cc1 [Compound 108] | – | 6.52 | pooled HDACs percent inhibition ([1]; H446 nuclear extract, @ 1 μM): 10% @ 1 μM |
| O=C(/C=C/c1ccc(NS(=O)(=O)c2ccc(Cl)c(Cl)c2)cc1)NO [Compound 109] | – | 6.92 | pooled HDACs percent inhibition ([1]; H446 nuclear extract, @ 1 μM): 32% @ 1 μM |

| Structure (SMILES) | pIC50 ([1]; H446 nuclear extract) | pIC50 [2, 3] | further results |
| --- | --- | --- | --- |
| CC(C)c1cc(C(C)C)c(S(=O)(=O)Nc2ccc(/C=C/C(=O)NO)cc2)c(C(C)C)c1 [Compound 110] | 6.15 | 6.26 | – |
| Nc1ccccc1NC(=O)/C=C/c1ccc(CC(=O)c2ccccc2)o1 [Compound 139] | – | – | pooled HDACs percent inhibition ([1]; H446 nuclear extract, @ 20 μM): 44% @ 20 μM |
| O=C(CCc1ccc(CC(=O)c2ccccc2)o1)NO [Compound 143] | – | – | pooled HDACs percent inhibition ([1]; H446 nuclear extract, @ 20 μM): 55% @ 20 μM |
| Nc1ccccc1NC(=O)CCc1ccc(CC(=O)c2ccccc2)o1 [Compound 144] | – | – | pooled HDACs percent inhibition ([1]; H446 nuclear extract, @ 20 μM): 6% @ 20 μM |
| O=C(NO)c1ccc(CCCC(O)c2ccc3ccccc3c2)cc1 (centres unmarked) [Compound 149] | – | – | pooled HDACs percent inhibition ([1]; H446 nuclear extract, @ 20 μM): 8% @ 20 μM |
| O=C(CCCc1ccc(CCCc2ccccc2)cc1)NO [Compound 155] | – | – | pooled HDACs percent inhibition ([1]; H446 nuclear extract, @ 20 μM): 39% @ 20 μM |
| Nc1ccccc1NC(=O)/C=C/C#Cc1cccc(NS(=O)(=O)c2ccccc2)c1 [Compound 168] | – | – | pooled HDACs percent inhibition ([1]; H446 nuclear extract, @ 20 μM): 0% @ 20 μM |
| CN(C)c1ccc(CCc2ccccc2C(=O)NO)cc1 [Compound 173] | – | – | pooled HDACs percent inhibition ([1]; H446 nuclear extract, @ 20 μM): 35% @ 20 μM |
| CC(C)(N)C(=O)ONC(=O)Cc1ccc(CCCCc2ccccc2)cc1.Cl [Compound 174f, N-(2-amino-2-methylpropanoyloxy)-2-(4-(4-phenylbutyl)phenyl)acetamide hydrochloride] | – | – | solubility (Solubility; [4]): 5 µM; solubility (Solubility; [5]): 4 µM |
| Cl.NCC1(C(=O)ONC(=O)Cc2ccc(CCCCc3ccccc3)cc2)CC1 [Compound 174g, N-(1-(aminomethyl)cyclopropanecarbonyloxy)-2-(4-(4-phenylbutyl)phenyl)acetamide hydrochloride] | – | – | solubility (Solubility; [4]): 195 µM; solubility (Solubility; [5]): 132 µM |
| O=C(CCC1CCC(CC(=O)c2ccccc2)O1)NO (centres unmarked) [Compound 176] | – | – | pooled HDACs percent inhibition ([1]; H446 nuclear extract, @ 20 μM): 20% @ 20 μM |
| O=C(CCCc1ccc(C(=O)NO)cc1)c1ccccc1 [Compound 177] | – | – | pooled HDACs percent inhibition ([1]; H446 nuclear extract, @ 20 μM): 10% @ 20 μM |
| O=C(Cc1ccc(CCCCc2cc(F)c(F)cc2F)cc1)NO [Compound 179, N-hydroxy-2-(4-(4-(2,4,5-trifluorophenyl)butyl)phenyl)acetamide] | – | – | pIC50 (rHDAC-1): 6.30; pIC50 (rHDAC-8): 6.28 |
| O=C(Cc1ccc(CCCCc2ccc(C(F)(F)F)cc2)cc1)NO [Compound 182, N-hydroxy-2-(4-(4-(4-(trifluoromethyl)phenyl)butyl)phenyl)acetamide] | – | – | pIC50 (rHDAC-1): 6.15; rHDAC-1 partial inhibition (maximum % inhibition reached) (rHDAC-1): 64%; pIC50 (rHDAC-8): 5.89; rHDAC-8 partial inhibition (maximum % inhibition reached) (rHDAC-8): 74% |
| O=C(Cc1ccc(CCCCc2ccc3[nH]ccc3c2)cc1)NO [Compound 183, 2-(4-(4-(1H-indol-5-yl)butyl)phenyl)-N-hydroxyacetamide] | – | – | pIC50 (rHDAC-1): 6.42; pIC50 (rHDAC-8): 6.39 |
| O=C(Cc1ccc(CCCCc2cccc(C(F)(F)F)c2)cc1)NO [Compound 184, N-hydroxy-2-(4-(4-(3-(trifluoromethyl)phenyl)butyl)phenyl)acetamide] | – | – | pIC50 (rHDAC-1): 6.03; pIC50 (rHDAC-8): 6.40; rHDAC-8 partial inhibition (maximum % inhibition reached) (rHDAC-8): 79% |
| O=C(Cc1ccc(CCCCc2ccccc2C(F)(F)F)cc1)NO [Compound 185, N-hydroxy-2-(4-(4-(2-(trifluoromethyl)phenyl)butyl)phenyl)acetamide] | – | – | pIC50 (rHDAC-1): 6.08; pIC50 (rHDAC-8): 6.21 |
| O=C(Cc1ccc(CCCCc2ccc3c(c2)OCO3)cc1)NO [Compound 187, 2-(4-(4-(benzo[d][1,3]dioxol-5-yl)butyl)phenyl)-N-hydroxyacetamide] | – | – | pIC50 (rHDAC-1): 6.70; rHDAC-1 partial inhibition (maximum % inhibition reached) (rHDAC-1): 62%; pIC50 (rHDAC-8): 6.68 |
| O=C(Cc1ccc(CCCCc2ccccc2)cc1)NO [H] | – | – | solubility (Solubility; [4]): 3 µM (≈ 0.85 µg/mL); solubility (Solubility; [5]): 3 µM (≈ 0.85 µg/mL) |

Second part, led by results:

| pIC50 ([1]; H446 nuclear extract) | pIC50 [2, 3] | Structure (SMILES) | further results |
| --- | --- | --- | --- |
| 6.40 | 7.02 | O=C(/C=C/c1ccc(NS(=O)(=O)c2cc(Cl)cc(Cl)c2O)cc1)NO [Compound 111] | – |
| – | 6.70 | COc1ccc(S(=O)(=O)Nc2ccc(/C=C/C(=O)NO)cc2)cc1 [Compound 113] | pooled HDACs percent inhibition ([1]; H446 nuclear extract, @ 1 μM): 46% @ 1 μM |
| – | 5.40 | COc1ccc(S(=O)(=O)Nc2ccc(/C=C/C(=O)Nc3ccccc3N)cc2)cc1OC [Compound 116] | – |
| – | 6.00 | Nc1ccccc1NC(=O)/C=C/c1ccc(NS(=O)(=O)c2ccc(-c3ccccc3)cc2)cc1 [Compound 123] | – |
| – | 5.52 | Nc1ccccc1NC(=O)C#Cc1ccc(NS(=O)(=O)c2ccc(-c3ccccc3)cc2)cc1 [Compound 129] | – |
| 5.05 | – | O=C(/C=C/c1ccc(CC(O)c2ccccc2)o1)NO (centres unmarked) [Compound 136] | – |
| 5.42 | – | O=C(/C=C/c1ccc(NC(=O)Nc2ccc(Cl)cc2)cc1)NO [Compound 145] | – |
| 5.54 | – | O=C(/C=C/c1ccc(NC(=O)Nc2cccc3ccccc23)cc1)NO [Compound 146] | – |
| 5.72 | – | COc1ccc(NC(=O)Nc2ccc(/C=C/C(=O)NO)cc2)cc1OC [Compound 147] | – |
| 5.30 | – | O=C(NO)c1ccc(CCCS(=O)(=O)c2ccccc2)cc1 [Compound 148] | – |
| 5.00 | – | O=C(NO)c1ccc(CCc2ccccc2)cc1 [Compound 150] | – |
| 5.12 | – | O=C(NO)c1ccc(/C=C/c2ccccc2)cc1 [Compound 151] | – |
| 5.30 | – | O=C(NO)c1ccc(CCCCCc2ccccc2)cc1 [Compound 153] | – |
| 5.30 | – | O=C(CCCc1ccc(CCCCc2ccccc2)cc1)NO [Compound 156] | – |
| 5.22 | – | O=C(CCc1ccc(CCc2ccccc2)cc1)NO [Compound 157] | – |
| < 4.70 | – | O=C(Cc1ccc(CCCS(=O)(=O)c2ccccc2)cc1)NO [Compound 158] | – |
| – | 7.40 | O=C(/C=C/c1ccc(S(=O)(=O)Nc2ccc(-c3ccccc3)cc2)cc1)NO [Compound 162] | – |
| 4.70 | – | CN(C)c1ccc(CCc2ccc(C(=O)NO)s2)cc1 [Compound 171] | – |
| 5.00 | – | CN(C)c1ccc(CCc2ccc(C(=O)NO)cc2)cc1 [Compound 172] | – |
| < 4.70 | – | O=C(Cc1ccc(CCCCc2ccccc2)cc1)NO [Compound 174, N-hydroxy-2-(4-(4-phenylbutyl)phenyl)acetamide] | – |
| < 5.70 | – | O=C(Cc1ccc(CCCc2ccccc2)cc1)NO [Compound 175] | – |
| – | < 4.70 | Nc1ccccc1NC(=O)c1ccc(CC(=O)c2ccccc2)o1 [Compound 178] | pooled HDACs percent inhibition ([1]; H446 nuclear extract, @ 20 μM): 2% @ 20 μM |
